Assay results: US20240252456A1, “ORAL COMPOSITION, SKIN COSMETIC AND HAIR COSMETIC” (MARUZEN PHARMACEUTICALS CO., LTD., priority 2021, published 2024)

What was measured:
AGEs = assay: Advanced glycation end product (AGEs) decomposition promotive action test; details: preformed AGEs, 37° C., 20 days
Protocol: In a 96-well type I collagen-coated plate (available from AGC Inc.), 100 μL of 0.2M D(−)-ribose solution prepared with PBS(−) buffer solution was added and statically placed at 37° C. for 2 weeks to form AGEs. In addition, the plate in which only the PBS(−) buffer solution was added was statically placed as a negative control in the same manner. After 2 weeks, 100 μL of the test sample (Sample 1, see Table 23 below for final concentration) prepared with PBS (−) buffer solution was added to each of the plates and statically further placed at 37° C. for 20 days. As a positive control, only PBS(−) buffer solution was statically placed in the same manner as substitute for the test sample, and as a negative control, only PBS(−) buffer solution was continued to be statically placed in the same manner. After 20 days, the amount of AGEs was measured by the ELISA method using an anti-AGEs antibody (available from TPANS GENIC INC.), and the AGEs decomposition promotive action was evaluated. From the obtained results, the AGEs decomposition promotion rate (%) was calculated using the following equation.
Terms in the equation represent the following respective ones. • A: Absorbance at wavelength 405 nm in negative control • B: Absorbance at wavelength 405 nm in positive control • C: Absorbance at wavelength 405 nm with test sample addition

[1] = system: Mouse macrophage cells (RAW264.7); assay: Nitric oxide (NO) production suppressive action test; assay type: cell-based; details: RAW264.7, LPS 1 μg/mL, 48 hours
Protocol: Mouse macrophage cells (RAW264.7) were cultured using Dulbecco's modified Eagle's medium (DMEM) containing 10% FBS, and then the cells were collected using a cell scraper. The collected cells were diluted with phenol red-free DMEM containing 10% FBS to a cell density of 3.0×10^6 cells/mL, then seeded with 100 μL per well in a 96-well plate, and cultured for 4 hours.
After culturing, the medium was removed, 100 μL of the test sample (Sample 1, see Table 26 below for final concentration) dissolved in phenol red-free DMEM containing DMSO at a final concentration of 0.5% and 10% FBS was added to each well, 100 μL of lipopolysaccharide (LPS, final concentration 1 μg/mL, E. coli 0111:B4, available from DIFCO) dissolved in phenol red-free DMEM containing 10% FBS was added, and culturing was performed for 48 hours. As a control, the LPS process was performed in the same manner using, as substitute for the test sample solution, phenol red-free DMEM containing DMSO at a final concentration of 0.5% and 10% FBS to which no sample was added.
The production amount of nitric oxide (NO) was measured using the amount of nitrite ions ([…]) as an index. After the culturing was completed, the same amount of Griess reagent (5 mass % phosphoric acid solution containing 1 mass % sulfanilamide and 0.1 mass % N-1-naphthyl ethylendiamine dihydrochloride) as the culture supernatant was added to the culture solution in each well and reacted for 10 minutes at room temperature. After the reaction, the absorbance at a wavelength of 540 nm was measured. The nitric oxide (NO) production suppression rate (%) was calculated by the following equation based on the nitric oxide (NO) production amount when no sample was added (control).
Terms in the equation represent the following respective ones. • A: NO amount with test sample addition • B: NO amount […]

HAS3 mRNA = assay: Hyaluronic acid synthase 3 (HAS3) mRNA expression promotive action test; assay type: cell-based, human; details: 25 μmol/L; NHEK, 24 hours; A/B×100, corrected with GAPDH
Protocol: Normal human neonatal epidermal keratinocytes (NHEK) were precultured using normal human epidermal keratinocyte growth medium (KGM), and the cells were collected by a trypsin treatment. The collected cells were diluted with KGM to a cell density of 15×10^4 cells/mL, then seeded with 2 mL portions in a 6-well plate (30×10^4 cells/well), and cultured overnight under conditions of 37° C. and 5% CO2. After culturing, the medium was replaced with normal human epidermal keratinocyte basal medium (KBM, the above KGM without addition of growth additives (hEGF, BPE, insulin, antibacterial agents, hydrocortisone)), and culturing was further performed for 24 hours.
After culturing for 24 hours, the medium was removed, and 2 mL of the test sample (Sample 1, see Table 10 below for final concentration) dissolved in KBM was added to each well, and culturing was performed under conditions of 37° C. and 5% CO2 for 24 hours. As a control, culturing was performed in the same manner using KBM to which no sample was added. After culturing, the medium was removed, total RNA was extracted using ISOGEN II (available from NIPPON GENE CO., LTD.), each RNA amount was measured using a spectrophotometer, and the total RNA was prepared so as to be 150 ng/μL.
For HAS3 and GAPDH as an internal standard, the expression levels of mRNA were measured using the above total RNA as a template. […]

For O=C(O)CCc1ccc(O)c(O)c1 [Sample 1, 3,4-Dihydroxyhydrocinnamic acid], the “AGEs decomposition promotion rate” value (AGEs; 125 μmol/L) was 37.7%, the “AGEs decomposition promotion rate” value (AGEs; 500 μmol/L) was 39.9% and the “AGEs decomposition promotion rate” value (AGEs; 2000 μmol/L) was 34.1%. The “NO production suppression rate” value ([1]; 31.2 μmol/L) was 14.9%, the “NO production suppression rate” value ([1]; 125 μmol/L) was 49.4% and the “NO production suppression rate” value ([1]; 500 μmol/L) was 77.8%. For the same compound, the “HAS3 mRNA expression promotion rate” value (HAS3 mRNA) was 173. 5%.
